In publication PMC8998978, “Toward a Treatment of Cancer: Design and In Vitro/In Vivo Evaluation of Uncharged Pyrazoline Derivatives as a Series of Novel SHP2 Inhibitors” (International Journal of Molecular Sciences, 2022):

What was measured:
SK-OV-3 cells = test: Cell viability assay (SRB); format: cell-based; conditions: Homo sapiens, SK-OV-3, 72 h
Source text: (§1) Human colon cancer cell line HCT116, hepatoma cell lines HepG2 and BEL-7402, lung adenocarcinoma cell lines NCI-H1975 and 95-D, pancreatic cancer cell line Panc-1, breast cancer cell line MDA-MB-231, NSCLC cell line NCI-H1299, ovarian cancer cell line SK-OV-3, leukemia cell line K562, glioma cell line U87, colon epithelial cell line NCM460 and umbilical vein endothelial cell line HUVEC were purchased from the Institute of Biochemistry and Cell Biology, Chinese Academy of Sciences (Shanghai, China). HCT116 cell line was cultured in McCoy’s 5A medium (Hyclone, Logan, UT, USA). HepG2, 95-D, Panc-1, MDA-MB-231, BEL-7402, SK-OV-3, U87 and NCM460 cell lines were cultured in DMEM-High glucose medium (Hyclone, Logan, UT, USA). NCI-H1975, NCI-H1299 and HUVEC cell lines were cultured in RPMI 1640 medium (Hyclone, Logan, UT, USA). K562 cell line was cultured in IMDM medium (Hyclone, Logan, UT, USA). All of them were incubated in the medium with 10% fetal bovine serum (PAN, Adenbach, Bavaria, Germany) and 1% penicillin-streptomycin (Gibco-Invitrogen, Grand Island, NY, USA) under a humidified atmosphere of 5% CO2 at 37 °C.
(§2) The inhibition rate of cell viability was detected by 3-(4,5-dimethyl-2-thiazolyl)-2,5-diphenyl-2-H-tetrazolium bromide (MTT, Solarbio, Beijing, China) or Sulforhodamine B (SRB, Sigma-Aldrich, St. Louis, MO, USA) assay. In MTT assay, the suspension cells were inoculated in 96-well plates at the density of 5000 cells per well, and incubated with 4o at indicated concentrations dissolved in DMSO for 72 h. Each well was incubated with MTT solution (5 mg/mL) at 37 °C for 4 h, DMSO was added and incubated overnight at 37 °C. The absorbance at 570 nm was measured in a multimode reader (Berthold Technologies, Germany). In SRB assay, adherent cells were seeded in 96-well plates (5000 cells per well). After 24 h, the cells were treated with 4o for 72 h, and then fixed with precooling 10% TCA solution at 4 °C for 1 h. After washing and drying, SRB staining was added for 15 min, and then washed and dried by 1% acetic acid. Finally, Tris–HCl solution was added, and the absorbance at 515 nm was detected in a multimode reader (Berthold Technologies, Germany).

HepG2 cells = test: Cell viability assay (SRB); format: cell-based; conditions: Homo sapiens, HepG2, 72 h
Source text: as §1, §2

U87 cells = test: Cell viability assay (SRB); format: cell-based; conditions: Homo sapiens, U-87 MG, U87, 72 h
Source text: as §1, §2

NCI-H1975 cells = test: Cell viability assay (SRB); format: cell-based; conditions: Homo sapiens, NCI-H1975, 72 h
Source text: as §1, §2

Panc-1 cells = test: Cell viability assay (SRB); format: cell-based; conditions: Homo sapiens, Panc-1, 72 h
Source text: as §1, §2

NCI-H1299 cells = test: Cell viability assay (SRB); format: cell-based; conditions: Homo sapiens, NCI-H1299, 72 h
Source text: as §1, §2

BEL-7402 cells = test: Cell viability assay (SRB); format: cell-based; conditions: Homo sapiens, BEL-7402, 72 h
Source text: as §1, §2

95-D cells = test: Cell viability assay (SRB); format: cell-based; conditions: Homo sapiens, 72 h
Source text: as §1, §2

MDA-MB-231 cells = test: Cell viability assay (SRB); format: cell-based; conditions: Homo sapiens, MDA-MB-231, 72 h
Source text: as §1, §2

[1] = tested on: RAS/MAPK signaling pathway in HCT116 cells; test: RAS activation assay and p-Erk Western blotting; format: cell-based, human; conditions: HCT116, 4o 2.5, 5 and 10 μM, 12 h, dose-dependent, versus DMSO
Method: (§3) HCT116 cells were harvested, lysed on ice in RIPA buffer (Beyotime Institute of Biotechnology, Shanghai, China) and boiled. Protein concentration was measured by BCA protein assay kit (Beyotime Institute of Biotechnology, Shanghai, China). The protein samples were separated by SDS-PAGE and transferred to the membrane (Pall, New York, NY, USA). Afterwards, the membrane was immunoblotted with the corresponding primary antibody (C-parp (#5625), C-cas9 (#9505), C-cas3 (#9661), Bcl-2 (#4223), Bax (#5023), SHP2 (#3752), P-Erk1/2 (#9101) and Erk1/2 (#9102), 1:1000, Cell Signaling Technology, Danvers, MA, USA; Tubulin (#ET1602-4), 1:5000, HUABIO, Hangzhou, China) and the appropriate HRP-conjugated secondary antibody, and determined with ECL detection reagent (Thermo Scientific, Waltham, MA, USA).
Active RAS (RAS-GTP) was pulled down from HCT116 cells. Cells were seeded in 6-well plates and treated with different concentrations of 4o for 12 h after overnight serum starvation. Cells were stimulated with 100 ng/mL hEGF for 5 min before cell lysis. On the basis of protein extraction and quantification, RAS activation assay biochem kit (Cytoskeleton Inc., Denver, CO, USA) was used for detection according to the requirements of manufacturers.

HCT116 cells [2] = test: Western blotting of apoptosis-related proteins; format: cell-based, human; conditions: HCT116, 4o 2.5, 5 and 10 μM, 24 h, versus DMSO
Method: as §3

HCT116 cells [3] = test: Colony formation assay; format: cell-based, human; conditions: 4o 0.625, 1.25 and 2.5 μM, 8 days
Method: HCT116 cells were seeded in 6-well plates at a density of 500 cells per well. After 24 h, cells were treated with different concentrations of 4o for 8 days. Subsequently, the culture medium was removed and the cells were fixed with methanol for 3 min, and stained with crystal violet (Solarbio, Beijing, China) for 15 min. Finally, colonies were counted and photographed.

human cancer cells = test: Cell viability assay, panel of cancer cells; format: cell-based; conditions: 11 cancer cell lines, 72 h, read-out: IC50 values against cancer cells (range over the panel)
Source text: as §1, with “All of them were incubated in the medium with 10% fetal bovine serum (PAN, Adenbach, Bavaria, Germany) and 1% penicillin-streptomycin (Gibco-Invitrogen, Grand Island, NY, USA) under a humidified atmosphere of 5% CO2 at 37 °C.” left out
The inhibition rate of cell viability was detected by 3-(4,5-dimethyl-2-thiazolyl)-2,5-diphenyl-2-H-tetrazolium bromide (MTT, Solarbio, Beijing, China) or Sulforhodamine B (SRB, Sigma-Aldrich, St. Louis, MO, USA) assay. […] The absorbance at 570 nm was measured in a multimode reader (Berthold Technologies, Germany). […] Finally, Tris–HCl solution was added, and the absorbance at 515 nm was detected in a multimode reader (Berthold Technologies, Germany).

## CCOc1ccc(Oc2ccc(C3=NN(C4=NC(=O)CS4)C(c4cc(O)c(O)c(Br)c4Br)C3)cc2)cc1 (centres unmarked) [Compound 4o, 2-(5-(2,3-dibromo-4,5-dihydroxyphenyl)-3-(4-(4-ethoxyphenoxy)phenyl)-4,5-dihydro-1H-pyrazol-1-yl)thiazol-4(5H)-one]
SK-OV-3 cells
  IC50: 8.44 ± 0.45 µM
HepG2 cells
  IC50: 3.8 ± 0.22 µM
U87 cells
  IC50: 10.2 ± 0.39 µM
NCI-H1975 cells
  IC50: 5.29 ± 0.6 µM
Panc-1 cells
  IC50: 6.3 ± 0.5 µM
NCI-H1299 cells
  IC50: 7.42 ± 0.43 µM
BEL-7402 cells
  IC50: 7.38 ± 0.31 µM
95-D cells
  IC50: 5.42 ± 0.44 µM
MDA-MB-231 cells
  IC50: 6.34 ± 0.37 µM
[1]
  Levels of RAS-GTP and p-Erk: decreased
HCT116 cells [2]
  Bax/Bcl-2 ratio: up-regulated
  Levels of cleaved parp, cleaved caspase9 and cleaved caspase3: increased
HCT116 cells [3]
  Colony formation of HCT116 cells: significantly inhibited the colony formation
Human cancer cells
  IC50: 2.64 to 10.2 µM
